Source: US11395492B2, “Antimicrobial and agrochemical compositions” (Myco Sciences Limited, priority 2015, dated 2022)
Values joined by “and” are separate entries in the source; they are usually repeats but may differ in a detail not shown here. Equal entries are not always repeated.

How the values were obtained:
[1] = system: sclerotia of R. solani; test: Scleroticidal assay with compositions and sodium nitrite; assay type: cell-based, Rhizoctonia solani
From the text: Scleroticidal assay. Plugs of agar containing white immature sclerotia (3×3 millimeters) were cut from a 6 to 8 day culture of R. solani, whilst mature melanized (black) sclerotia (around 10×3 millimeters) were excised from 13-day old R. solani cultures and cut into 2×3 millimeter pieces with a scalpel. The sclerotia samples were then placed in the wells of a 96-well plate containing 75 microliters of various concentrations of sodium nitrite or sterile distilled water (DW) as control. TO start the reaction, 75 microliters of CuZn #31 (diluted in DW) was added to the wells. The plate was carefully shaken and incubated at room temperature for 10 minutes when the liquid was carefully removed and 150 microliters of CM-1 medium was added for 5 minutes to stop the reaction.

[2] = system: spores of F. oxysporum; test: Sporicidal assay (1) with sodium nitrite, F. oxysporum; assay type: cell-based, Fusarium oxysporum f. sp. cubense
[3] = system: spores of B. cinerea; test: Sporicidal assay (1) with sodium nitrite, B. cinerea; assay type: cell-based, Botrytis cinerea
[4] = NaNO2 1 mM + DW (sodium nitrite alone)
[5] = NaNO2 3 mM + DW (sodium nitrite alone)
[6] = NaNO2 10 mM + DW (sodium nitrite alone)
[7] = NaNO2 30 mM + DW (sodium nitrite alone)

## O=NO [NaNO2, sodium nitrite]
[1]; NaNO2 30 mM + 0 composition (sodium nitrite alone)
  Mean fungal growth (in mm ± SD, n = 2) of black sclerotia after treatment: 41 ± 2 mm and 43 ± 2 mm
[1]; sodium nitrite alone (0+100), white or black sclerotia
  scleroticidal effect (words, FIG. 2): little or no significant scleroticidal effect
[2]; 100 millimolar sodium nitrite alone, data not shown
  sporicidal activity to F. oxysporum spores: sporicidal
[2]; [4]
  Fungal growth score, spores of F. oxysporum: 2
[2]; [5]
  Fungal growth score, spores of F. oxysporum: 2
[2]; [6]
  Fungal growth score, spores of F. oxysporum: 2
[2]; [7]
  Fungal growth score, spores of F. oxysporum: 2
[3]; [4]
  Fungal growth score, spores of B. cinerea: 2
[3]; [5]
  Fungal growth score, spores of B. cinerea: 2
[3]; [6]
  Fungal growth score, spores of B. cinerea: 2
[3]; [7]
  Fungal growth score, spores of B. cinerea: 2
[3]; NaNO2 100 mM + DW (sodium nitrite alone)
  Fungal growth score, spores of B. cinerea: 2
